What was measured:
[1] = Absorption maximum wavelength, absorbance and absorption coefficient of colored solution; type: physicochemical; conditions: n-hexane colored solution; for Absorption coefficient (ε): calculated in accordance with the Lambert-Beer law
Description: Azomethine pigments (preparing the above exemplified compounds D-1, D-5, D-11, D-20, D-26, D-38, D-43, D-46, D-49, D-55, D-56, D-57 and D-65 shown in the following Table) and n-hexane as an organic solvent were mixed to prepare a 15% by mass azomethine pigment-n-hexane solution (colored composition), thereby manufacturing 13 kinds of colored solutions.
For the colored solution (colored composition), the absorption maximum wavelength (λmax) and the absorbance were measured with a visible light absorbance spectrometer (UV-1800PC, manufactured by Shimadzu Corporation) and the absorption coefficient (ε) was calculated in accordance with the Lambert-Beer law.

[2] = Measurement of dynamic viscosity; type: physicochemical; conditions: solution of 10% by mass of pigment in decane
Description: Note that, the dynamic viscosity is a value measured by adjusting a solution at 10% by mass of the pigment in decane to 20° C. using a viscometer (500 TYPE, manufactured by Toki Sangyo Co., Ltd.).
For the azomethine pigments shown in the following Table 7, a solution of 10% by mass of each pigment in decane was prepared and an R-type viscometer (500 TYPE, manufactured by Toki Sangyo Co., Ltd.) was used to measure the viscosity thereof at 20° C.

[3] = Measurement of relative permittivity; type: physicochemical; conditions: pigment itself, extrapolated from 5, 7.5 and 10% by mass solutions in n-hexane; 20° C., 40% RH, 1 kHz
Description: The relative permittivity is a value obtained by injecting the colored composition into a glass cell having a cell gap of 10 μm to which an indium tin oxide (ITO) transparent electrode is attached and measuring, at 20° C. and 40% RH, the electric capacitance of the cell with the colored composition thus-obtained using a TYPE 2353LCR METER (measuring frequency: 1 kHz) manufactured by NF Co., Ltd.
The azomethine pigments shown in the following Table 7 were prepared and solutions of 5% by mass, 7.5% by mass and 10% by mass of each pigment dissolved in n-hexane (all were colored solutions) were prepared. Each colored solution obtained was injected into a glass cell having a cell gap of 10 μm to which an indium tin oxide (ITO) transparent electrode was attached. For each of the glass cells, the electric capacitance was measured (measuring frequency: 1 kHz). Further, a cell for reference was prepared by injecting only n-hexane into a glass cell which was the same kind of glass cell as described above, and the electric capacitance of the cell for reference was also measured. The electric capacitance of the cell obtained was measured at 20° C. and 40% RH using a type 2353LCR meter (measuring frequency: 1 kHz) manufacture by NF Co., Ltd.
The relative permittivity of each colored solution was obtained by the above measurement, and the relative permittivity of each azomethine pigment itself was calculated from the above relative permittivity by extrapolation.

[4] = Solubility in n-hexane; conditions: in n-hexane at 25° C. and 0.1 MPa
Description: Hereinafter, “a solubility in n-hexane at 25° C. and 0.1 MPa” of a pigment is also simply referred to as “solubility”.
The solubility of each azomethine pigment in n-hexane, which is a non-polar solvent, was measured by the following method.
Each pigment was dissolved in n-hexane that had been heated to 50° C. to prepare a saturated solution, and then the saturated solution obtained was left to stand in an environment of 0.1 MPa at 25° C. for 1 hour. The precipitated pigment was filtered and the precipitation amount was measured, thereby calculating the solubility (% by mass) of each pigment in n-hexane at 25° C. and 0.1 MPa.

Compound | Absorption maximum wavelength [λmax] [1] [nm] | Absorption coefficient (ε) [1] | Viscosity (20° C.) [2] [mPa · s] | Relative permittivity [3] | Solubility (% by mass) [4]
CCCCCCCCN(CCCCCCCC)c1ccc(N=C2C(=O)N(c3ccccc3)N=C2C)c(C)c1 [Pigment D-1] | 500 | 6.05 × 10^4 | 1.3 | 8.6 | 9.5 % by mass
CCCCCCCCN1N=C(C(C)(C)C)C(=Nc2ccc(N(CC)CC)cc2C)C1=O [Pigment D-5] | 502 | 5.20 × 10^4 | – | – | 8.5 % by mass
CCCCCCN(CCCCCC)c1ccc(N=C2C(=O)N(c3ccccc3)N=C2C(C)(C)C)c(C)c1 [Pigment D-11] | 502 | 5.60 × 10^4 | – | – | 1.1 % by mass
CCCCCCCCOc1cc(N(CCCC)CCCC)ccc1N=C1C(=O)ON=C1c1ccccc1 [Pigment D-20] | 480 | 4.80 × 10^4 | 1.2 | 8.8 | –
CCCCCCCCNC(=O)C1=CC(=Nc2ccc(N(CCCCCCCC)CCCCCCCC)cc2)C=C(C)C1=O [Pigment D-26] | 626 | 2.8 × 10^4 | 1.4 | 6 | –
CCCCCCCCCCCCCCCCNC(=O)C1=CC(=Nc2ccc(N(CC)CC)cc2CC)c2ccccc2C1=O [Pigment D-38] | 630 | 2.9 × 10^4 | 1.5 | 4.4 | –
CCCCCCCCCCCCCCCCCCNC(=O)C1=CC(=Nc2ccc(N(CC)CC)cc2OC)c2ccccc2C1=O [Pigment D-43] | 658 | 2.6 × 10^4 | 1.5 | 4.7 | –
CCCCCCN(CCCCCC)c1ccc(N=C2C=C(C(=O)Nc3ccccc3)C(=O)c3ccccc32)c(C)c1 [Pigment D-46] | 635 | 2.8 × 10^4 | – | – | –
CCCCCCCCN(CCCCCCCC)c1ccc(N=C2C(C(C)(C)C)=Nn3nc(-c4ccccc4)nc32)c(C)c1 [Pigment D-49] | 518 | 7.2 × 10^4 | 1.2 | 6.7 | 11 % by mass
CCCCCCOc1cc(N(CCCCCC)CCCCCC)ccc1N=C1C(C#N)=Nn2nc(C(C)(C)C)nc21 [Pigment D-56] | 550 | 7.2 × 10^4 | – | – | 3.5 % by mass
CCCCCCCCN1CCc2cc(/N=C3/C(C)=Nn4nc(C(C)CNC(=O)C(CCCCCC)Oc5ccc(C(C)(C)CC)cc5C(C)(C)CC)nc43)ccc21 [Pigment D-57] | 540 | 7.55 × 10^4 | 1.2 | 6.2 | 12.3 % by mass
CCCCCCN(CCCCCC)c1cc(C)c(N=C2C(C#N)=C(C(=O)OC3C(C(C)(C)C)CC(C)CC3C(C)(C)C)c3nc(C(C)(C)C)nn32)c(C)c1 [Pigment D-65] | 725 | 6.8 × 10^4 | – | – | ≥ 15.0 % by mass
CCN(CC)c1ccc(N=C2C(=O)N(c3ccccc3)N=C2C)c(C)c1 [Pigment D-101, reference compound] | – | – | – | – | 0.05 or less % by mass
CCN(CC)c1ccc(N=C2C(=O)ON=C2C(C)(C)C)cc1 [Pigment D-102, reference compound] | – | – | – | – | ≤ 0.05 % by mass
CCN(CC)c1ccc(N=C2C=C(NC(C)=O)C(=O)C(Cl)=C2C)c(C)c1 [Pigment D-103, reference compound] | – | – | – | – | ≤ 0.05 % by mass
CCCCN(CCCC)c1ccc(N=C2C=C(C(=O)NC)C(=O)c3ccccc32)cc1 [Pigment D-104, reference compound] | – | – | – | – | ≤ 0.05 % by mass
CCN(CC)c1ccc(/N=C2\C(C#N)=C(C(=O)OC)c3nc(-c4ccc(C(C)(C)C)cc4)nn32)c(C)c1 [Pigment D-106, reference compound] | – | – | – | – | ≤ 0.05 % by mass
